Patent US5763443A, “MDR resistance treatment and novel pharmaceutically active riminophenazines” (priority 1994, dated 1998)
Converted amounts (≈) assume the structure as drawn. Read-outs that look alike come from different tables or passages of the source.

Columns and labels:
[1] = system: multi-drug resistant (MDR) lung carcinoma cell line H69/LX4; assay: cells; conditions: for INCREASED SENSITIVITY H69/Lx4: Table VIII, values equal IC50 NONE / IC50 with VB 25 ng/ml of Table VII, 10080 min
Method: The riminophenazines of the above formula (I), contain an imino group. […] The potency of compounds of the above general formula, as inhibitors of multi-drug resistance, was assessed by sensitization of a P-glycoprotein positive cell line to drugs associated with this form of resistance. A human small cell lung cancer cell line H 69/P as well as a multi-drug resistance (MDR) sub-line H69/LX4 were used. These cell lines were obtained from the Medical Research Council Clinical Oncology and Radiotherapeutics Unit, Hills Road, Cambridge, England. The H69/LX4 line was selected in vitro by progressive exposure to increasing concentrations of doxorubicin in order to increase P-glycoprotein expression.
The cell lines used were human small cell lung cancer cell line HP69/P and a multi-drug resistant (MDR) sub-line H69/LX4, both of which were supplied by the MRC Clinical Oncology and Radiotherapeutics Unit, Hills Road, Cambridge, England. The maintenance of the cell lines and drug response assays was done as described by Twentyman et al in British Journal of Cancer Volume 65 pages 335-340. The H69/LX4 line was originally described by Twentyman et al in British Journal of Cancer Volume 53, pages 529-637 (1986).
The data in parenthesis represents fold sensitivity compared with the chemotherapeutic agent without the MDR inhibitor.
The results obtained, are illustrated graphically in FIGS. 4 to 7 of the accompanying drawings.
(§1) The general procedure set forth above was followed, i.e. 7 days incubation in the4 presence of doxorubicin at 12,5 ng/ml or vinblastine at 25 or 3 ng/ml.
(§2) The effects were examined over a seven (7) day exposure to different concentrations of B4119 and B4125 on the sensitivity of a doxorubicin resistant leukaemia cell line (K562/MMB) and a lung carcinoma cell line (H69/LX4) to doxorubicin (dox) and vinblastine (VB) using the MTT assay.

[2] = system: MDR leukaemia cell line K562/MMB; assay: cells; conditions: for INCREASED SENSITIVITY K 562/MMB: Table VIII, values equal IC50 NONE / IC50 with VB 3 ng/ml of Table VII, 10080 min; for MDR activity / sensitivity against cell line K562/MMP: compared with known reference compound B4100
Method: A third cell line (562/MMB) used was a MDR leukemia cell line selected in vitro by progressive exposure to increasing concentrations of vinblastine in order to increase P-glycoprotein expression. This cell line was developed in the Department of Immunology, University of Pretoria from K562 (ATCC CCL 243) supplied by Highveld Biological (Pty) Ltd, Sandton.
as §1, §2

[3] = Homo sapiens, 168 h, read-out: IC 50 H69/Lx4 NONE
[4] = Homo sapiens, read-out: IC 50 H69/Lx4 DOX 12 ng/ml
[5] = Homo sapiens, read-out: IC 50 H69/Lx4 VB 25 ng/ml
[6] = Homo sapiens, K562, 168 h, read-out: IC 50 K562/MMB NONE, Table VII, riminophenazine alone, 7 day
[7] = Homo sapiens, K562, read-out: IC 50 K562/MMB DOX 12 ng/ml, Table VII, with doxorubicin 12 ng/ml
[8] = Homo sapiens, K562, read-out: IC 50 K562/MMB VB 3 ng/ml, Table VII, with vinblastine 3 ng/ml
[9] = Homo sapiens, 168 h, read-out: cytotoxic activity of chemotherapeutic agent at the concentration used with the riminophenazine
[10] = Homo sapiens, K562, 168 h, read-out: cytotoxic activity of chemotherapeutic agent at the concentration used with the riminophenazine

SMILES	IC50 [1, 3]	IC50 [1, 4]	IC50 [1, 5]	INCREASED SENSITIVITY H69/Lx4 [1]	INCREASED SENSITIVITY K 562/MMB [2]	further results
CC1(C)CC(N=c2cc3n(-c4ccccc4)c4ccccc4nc-3cc2Nc2ccccc2)CC(C)(C)N1 [Compound B3962, N,5-bis(phenyl)-3,5-dihydro-3-[(2',2',6',6'-tetramethyl-4-piperidyl)imino]-2-phenazinamine]	0.563 µg/mL (≈ 1.12 µM)	0.427 µg/mL (≈ 0.851 µM)	0.262 µg/mL (≈ 0.522 µM)	2.15	4.07	
CC1(C)CC(N=c2cc3n(-c4cccc(C(F)(F)F)c4)c4ccc(Cl)cc4nc-3cc2Nc2cccc(C(F)(F)F)c2)CC(C)(C)N1 [Compound B4127, N,5-bis(3-trifluoromethylphenyl)-8-chloro-3,5-dihydro-3-[(2',2',6',6'-tetramethyl-4-piperidyl)-imino]-2-phenazinamine]	1.32 µg/mL (≈ 1.97 µM)	1.31 µg/mL (≈ 1.95 µM)	0.454 µg/mL (≈ 0.675 µM)	2.91	6.07	
CC1(C)CC(N=c2cc3n(-c4ccc(OC(F)(F)F)cc4)c4ccccc4nc-3cc2Nc2ccc(OC(F)(F)F)cc2)CC(C)(C)N1 [Compound B4177, N,5-bis(4-trifluoromethoxyphenyl)-3,5-dihydro-3-[(2',2',6',6'-tetramethyl-4-piperidyl)-imino)-2-phenazinamine]	0.6 µg/mL (≈ 0.896 µM)	0.852 µg/mL (≈ 1.27 µM)	0.056 µg/mL (≈ 0.0836 µM)	10.71		MDR activity against the cell line H69/LX4 [1]: very good activity
COc1ccc(Nc2cc3nc4ccccc4n(-c4ccc(OC)cc4)c-3cc2=NC2CC(C)(C)NC(C)(C)C2)cc1 [Compound B4174, N,5-bis(4-methoxyphenyl)-3,5-dihydro-3-[(2',2',6',6'-tetramethyl-4-piperidyl)-imino]-2-phenazinamine]	0.462 µg/mL (≈ 0.822 µM)	0.587 µg/mL (≈ 1.04 µM)	0.535 µg/mL (≈ 0.952 µM)	0.86	1.78	
CC1(C)CC(N=c2cc3n(-c4ccccc4)c4ccc(Cl)cc4nc-3cc2Nc2ccccc2)CC(C)(C)N1 [Compound B4019]	1.03 µg/mL (≈ 1.92 µM)	0.771 µg/mL (≈ 1.44 µM)	0.488 µg/mL (≈ 0.91 µM)	2.11		
CC1(C)CC(N=c2cc3n(-c4ccc(Cl)cc4)c4ccccc4nc-3cc2Nc2ccc(Cl)cc2)CC(C)(C)N1 [Compound B3786]	0.608 µg/mL (≈ 1.07 µM)	0.597 µg/mL (≈ 1.05 µM)	0.169 µg/mL (≈ 0.296 µM)	3.60		
CC1(C)CC(N=c2cc3n(-c4cccc(Cl)c4)c4ccccc4nc-3cc2Nc2cccc(Cl)c2)CC(C)(C)N1 [Compound B4112, N,5-bis(3-chlorophenyl)-3,5-dihydro-3-[(2',2',6',6'-tetramethyl-4-piperidyl)-imino]-2-phenazinamine]	0.62 µg/mL (≈ 1.09 µM)	0.175 µg/mL (≈ 0.307 µM)	0.029 µg/mL (≈ 0.0508 µM)	21.38	19.5	MDR activity against the cell line H69/LX4 [1]: very good activity; IC50 ([1]; Homo sapiens, read-out: IC50, plus VB): 0.029 µg/mL; IC50 ([1]; Homo sapiens, read-out: IC50, plus doxo): 0.62 µg/mL; direct cytotoxic activity [2]: direct cytotoxic activity in this cell line at reasonably low concentrations; IC50 [2, 6]: 0.156 µg/mL (≈ 0.273 µM); IC50 ([2]; Homo sapiens, K562, read-out: IC50, alone, Table V, K562/MMB (first value column, head not given)): 0.156 µg/mL (≈ 0.273 µM); IC50 ([2]; Homo sapiens, K562, read-out: IC50, plus VB, Table V, K562/MMB, vinblastine 3 ng/ml): 0.008 µg/mL; IC50 ([2]; Homo sapiens, K562, read-out: IC50, plus doxo, Table V, K562/MMB, doxorubicin 12 ng/ml): 0.066 µg/mL; IC50 [2, 7]: 0.066 µg/mL (≈ 0.116 µM); IC50 [2, 8]: 0.008 µg/mL (≈ 0.014 µM); lowest concentration at which compound was active ([2]; K562/MMB, Example 6): 3 ng/mL; MDR activity / sensitivity against cell line K562/MMP [2]: exceptionally good activity
CC1(C)CC(N=c2cc3n(-c4ccc(Cl)c(Cl)c4)c4ccccc4nc-3cc2Nc2ccc(Cl)c(Cl)c2)CC(C)(C)N1 [Compound B4100, reference compound]	0.798 µg/mL (≈ 1.25 µM)	0.582 µg/mL (≈ 0.91 µM)	0.125 µg/mL (≈ 0.195 µM)	6.38	3.53	
CO[C@@]12[C@H](COC(N)=O)C3=C(C(=O)C(C)=C(N)C3=O)N1C[C@@H]1N[C@@H]12 [Mitomycin C, reference compound]						IC50 ([1]; Homo sapiens, 168 h, read-out: IC50 of chemotherapeutic agent, MDR inhibitor None): 0.1 µg/mL (≈ 0.299 µM)
CC(C)c1ccc(Nc2cc3nc4cc(Cl)ccc4n(-c4ccc(C(C)C)cc4)c-3cc2=NC2CC(C)(C)NC(C)(C)C2)cc1 [Compound B4159, N,5-bis(4-isopropylphenyl)-8-chloro-3,5-dihydro-3-[(2',2',6',6'-tetramethyl-4-piperidyl)-imino]-2-phenazinamine]	1.55 µg/mL (≈ 2.5 µM)	1.09 µg/mL (≈ 1.76 µM)	0.268 µg/mL (≈ 0.432 µM)	5.79	7.02	MDR activity / sensitivity against cell line K562/MMP [2]: exceptionally good activity
CC1(C)CC(N=c2cc3n(-c4ccc(Cl)c(C(F)(F)F)c4)c4ccccc4nc-3cc2Nc2ccc(Cl)c(C(F)(F)F)c2)CC(C)(C)N1 [Compound B4163, N,5-bis[(3-trifluoromethyl)-4-chlorophenyl]-3,5-dihydro-3-[(2',2',6',6'-tetramethylpiperidyl)-imino]-2-phenazinamine]	0.972 µg/mL (≈ 1.38 µM)	0.846 µg/mL (≈ 1.2 µM)	0.281 µg/mL (≈ 0.398 µM)	3.46	10.63	IC50 [2, 8]: 0.032 µg/mL (≈ 0.0453 µM); MDR activity / sensitivity against cell line K562/MMP [2]: increased substantially and unexpectedly
COc1cccc2c1C(=O)c1c(O)c3c(c(O)c1C2=O)C[C@@](O)(C(=O)CO)C[C@@H]3O[C@H]1C[C@H](N)[C@H](O)[C@H](C)O1 [Doxorubicin, reference compound]						cytotoxicity at 0.0125 µg/mL [1, 9]: < 10%; cytotoxicity at 0.0125 µg/mL [2, 10]: < 10%
CC1(C)CC(N=c2cc3n(-c4ccc(C(F)(F)F)cc4C(F)(F)F)c4ccccc4nc-3cc2Nc2ccc(C(F)(F)F)cc2C(F)(F)F)CC(C)(C)N1 [Compound B4178, N,5-bis(2,4-di-trifluoromethyl-phenyl)-3,5-dihydro-3-[(2',2',6',6'-tetramethylpiperidyl)-imino]phenazinamine]	0.785 µg/mL (≈ 1.01 µM)	0.521 µg/mL (≈ 0.673 µM)	0.399 µg/mL (≈ 0.516 µM)	1.97	6.03	IC50 [2, 6]: 1.02 µg/mL (≈ 1.32 µM); IC50 [2, 7]: 0.919 µg/mL (≈ 1.19 µM); IC50 [2, 8]: 0.199 µg/mL (≈ 0.257 µM)
CC[C@]1(O)C[C@@H]2CN(CCc3c([nH]c4ccccc34)[C@@](C(=O)OC)(c3cc4c(cc3OC)N(C)[C@H]3[C@@](O)(C(=O)OC)[C@H](OC(C)=O)[C@]5(CC)C=CCN6CC[C@]43[C@@H]65)C2)C1 [Vinblastine, reference compound]						cytotoxicity at 0.025 µg/mL [1, 9]: < 10%; cytotoxicity at 0.003 µg/mL [2, 10]: < 10%
CC1(C)CC(N=c2cc3n(-c4ccc(Cl)cc4)c4ccc(Cl)cc4nc-3cc2Nc2ccc(Cl)cc2)CC(C)(C)N1 [Compound B4090]	1.5 µg/mL (≈ 2.48 µM)	1.01 µg/mL (≈ 1.66 µM)	0.266 µg/mL (≈ 0.44 µM)	5.64	7.30	IC50 [2, 8]: 0.027 µg/mL (≈ 0.0446 µM); MDR activity / sensitivity against cell line K562/MMP [2]: exceptionally good activity
CCN(CC)CCCN=c1cc2n(-c3ccc(Cl)c(Cl)c3)c3ccccc3nc-2cc1Nc1ccc(Cl)c(Cl)c1 [Compound B4154]	1.33 µg/mL (≈ 2.17 µM)	0.648 µg/mL (≈ 1.06 µM)	0.378 µg/mL (≈ 0.616 µM)	3.52	2.99	
Cc1ccc(Nc2cc3nc4ccccc4n(-c4ccc(C)cc4)c-3cc2=NC2CC(C)(C)NC(C)(C)C2)cc1 [Compound B4070, N,5-bis(4-methylphenyl)-3,5-dihydro-3-[(2',2',6',6'-tetramethyl-4-piperidyl)imino]-2-phenazinamine]	0.525 µg/mL (≈ 0.991 µM)	0.312 µg/mL (≈ 0.589 µM)	0.2 µg/mL (≈ 0.378 µM)	2.63	2.94	IC50 [2, 6]: 0.159 µg/mL (≈ 0.3 µM); IC50 ([2]; Homo sapiens, K562, 168 h, read-out: IC 50 of riminophenazine, Doxorubicin, Table IV, K562/MMB, with doxorubicin 12 ng/ml, 7 day): 0.193 µg/mL (≈ 0.364 µM); IC50 ([2]; Homo sapiens, K562, 168 h, read-out: IC 50 of riminophenazine, None, Table IV, K562/MMB, riminophenazine alone, 7 day, mean of 2 experiments): 0.159 µg/mL (≈ 0.3 µM); IC50 ([2]; Homo sapiens, K562, 168 h, read-out: IC 50 of riminophenazine, Vinblastine, Table IV, K562/MMB, with vinblastine 3 ng/ml, 7 day): 0.054 µg/mL (≈ 0.102 µM); IC50 [2, 7]: 0.193 µg/mL (≈ 0.364 µM); IC50 [2, 8]: 0.054 µg/mL (≈ 0.102 µM)
